From patent US8552013B2, “Heterocyclic compounds based on N6-substituted adenine, methods of their preparation, their use for preparation of drugs, cosmetic preparations and growth regulators, pharmaceutical preparations, cosmetic preparations and growth regulators containing these compounds” (USTAV Experimentalni Botaniky Akademie Ved Ceske Republiky, priority 2001, dated 2013)

Legend:
[1] = system: B16-F0 melanoma; experiment: Calcein AM cytotoxicity, B16-F0; format: cell-based; conditions: Mus musculus, B16F0, 72 h, read-out: IC 50, B16-F0
Excerpt: One of the parameters used, as the basis for cytotoxicity assays, is the metabolic activity of viable cells. For example, a microtiter assay, which uses the Calcein AM, is now widely used to quantitate cell proliferation and cytotoxicity. For instance, this assay is used in drug screening programs and in chemosensitivity testing. Because only metabolically active cells cleave Calcein AM, these assays detect viable cells exclusively. The quantity of reduced Calcein AM corresponds to the number of vital cells in the culture.
Human T-lymphoblastic leukemia cell line CEM; promyelocytic HL-60 and monocytic U937 leukemias; breast carcinoma cell lines MCF-7, BT549, MDA-MB-231; glioblastoma U87MG cells; cervical carcinoma cells HELA; sarcoma cells U2OS and Saos2; hepatocellular carcinoma HepG2; mouse fibroblasts NIH3T3; mouse immortalized bone marrow macrophages B2.4 and B10A.4; P388D1 and L1210 leukemia; B16 and B16F10 melanomas were used for routine screening of compounds. The cells were maintained in Nunc/Corning 80 cm^2 plastic tissue culture flasks and cultured in cell culture medium (DMEM with 5 g/l glucose, 2 mM glutamine, 100 U/ml penicillin, 100 μg/ml streptomycin, 10% fetal calf serum and sodium bicarbonate).
The cell suspensions that were prepared and diluted according to the particular cell type and the expected target cell density (2.500-30.000 cells per well based on cell growth characteristics) were added by pipette (80 μl) into 96/well microtiter plates. Inoculates were allowed a pre-incubation period of 24 hours at 37° C. and 5% CO2 for stabilisation. Four-fold dilutions of the intended test concentration were added at time zero in 20 μl aliquots to the microtiter plate wells. Usually, test compound was evaluated at six 4-fold dilutions. In routine testing, the highest well concentration was […], but it can be the matter of change dependent on the agent. All drug concentrations were examined in duplicates. Incubations of cells with the test compounds lasted for 72 hours at 37° C., in 5% CO2 atmosphere and 100% humidity. At the end of incubation period, the cells were assayed by using the Calcein AM. Ten microliters of the stock solution were pipetted into each well and incubated further for 1 hours. Fluorescence (FD) was measured with the Labsystem FIA Reader Fluoroscan Ascent (UK). The tumour cell survival (GI50) was calculated using the following equitation: TCS═(FDdrug exposed well/mean FDcontrol wells)×100%. The GI50 value, the drug concentration lethal to 50% of the tumour cells, was calculated from the obtained dose response curves (FIG. 1).

[2] = system: human diploid fibroblasts (HCA cells); experiment: Senescence, beta-galactosidase staining of human diploid fibroblasts; format: cell-based
Method in brief: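 HCA fibroblasts at passages 25, 45 and 80 were fixed for 5 min at room temperature in 2% formaldehyde/0.2% glutaraldehyde. They were then incubated at 37 °C without CO2 for 1 to 16 hours with X-gal 1 mg/ml, 5 mM ferri- and ferrocyanide and 2 mM MgCl2 in citric/phosphate buffer, pH 6.0. Blue-stained cells were scored.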

[3] = system: MCF-7 cell line; experiment: Apoptosis in MCF-7, Anexin FITC V / propidium iodide staining; format: cell-based, human; conditions: FIG. 3; 6 h, 20 μM apoptotic cells
Protocol: A MCF-7, apoptotic cells: 6 h, 12, 20 μM, B MCF-7, secondary necrotic cells (i.e. necrosis following apoptosis), 12 h, 12, 40 μM; C MCF-7, necrotic cells, 24 h, 12, 40 μM. Anexin FITC V (Mol. Probes) and propidium iodide staining: anexin—green, PI—red.
Analysed using “Olympus image analysis” after treatment of MCF-7 tumour cells by 6-(2-hydroxy-3-methoxybenzylamino)purine. A,B—control cells without treatment; C,D—apoptotic cells (condensation of chromatin); A,C—fluorescence microscopy; B,D—fluorescence image analysis.

[4] = system: Amaranthus caudatus cotyledon/hypocotyl explants; experiment: Amaranthus bioassay, betacyanin content; format: in vivo; conditions: betacyanin content at the concentration with highest activity
[5] = system: Triticum aestivum cv. Hereward leaf tips; experiment: Retention of chlorophyll in excised wheat leaf tips; format: in vivo; conditions: chlorophyll retention at the concentration with highest activity
Method in brief: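 Tips of first leaves from 7-day wheat (cv. Hereward) seedlings kept on compound solutions (10^−8 to 10^−4 M, from DMSO stock) for 96 h in the dark at 25 °C. Chlorophyll extracted in 80% ethanol at 80 °C and read at 665 nm. Activity at the best concentration expressed relative to 10^−4 M BAP (100%), five replicates.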

Structure (SMILES): COc1cccc(CNc2ncnc3nc[nH]c23)c1O [6-(2-hydroxy-3-methoxybenzylamino)purine]
- IC50 [1]: 69 µM
- SENESCENT CELLS (%) HCA25 ([2]; passage 25): 4%
- SENESCENT CELLS (%) HCA45 ([2]; passage 45): 3%
- SENESCENT CELLS (%) HCA80 ([2]; passage 80): 20%
- apoptosis in MCF-7 tumour cells [3]: induced apoptosis
- activity (%) [10^−5 mol · l^−1 BAP = 100%] [4]: 19 (±3) %
- Activity (%) [10^−4 mol · l^−1 BAP = 100%] [5]: 34 (±5) %
